Test results taken from ChEMBL document CHEMBL1201862, “PubChem BioAssay data set” (2004).
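48-hour exposure; five concentrations; linearly interpolated endpoints. GI50 = concentration required for 50% inhibition of growth.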 Calls of active or inactive are those of the source. Rule as the data show it: active = GI50 up to about 1.1 µM and inactive = higher.

Columns and labels:
Assay in all cases: DTP human tumour cell line panel, 48 h
HL-60 = tested on: HL-60
K562 = tested on: K562
MDA-N = tested on: MDA-N
HT-29 = tested on: HT-29
CAKI-1 = tested on: CAKI-1
MDA-MB-435 = tested on: MDA-MB-435
SNB-19 = tested on: SNB-19
NCI-H23 = tested on: NCI-H23
RPMI-8226 = tested on: RPMI-8226
SK-MEL-2 = tested on: SK-MEL-2
KM12 = tested on: KM12
IGROV-1 = tested on: IGROV-1
NCI/ADR-RES = tested on: NCI/ADR-RES
NCI-H226 = tested on: NCI-H226
ACHN = tested on: ACHN
DU-145 = tested on: DU-145
MOLT-4 = tested on: MOLT-4
UACC-62 = tested on: UACC-62
COLO 205 = tested on: COLO 205
UACC-257 = tested on: UACC-257

Compound | GI50 (HL-60) | GI50 (K562) | GI50 (MDA-N) | GI50 (HT-29) | GI50 (CAKI-1) | GI50 (MDA-MB-435) | GI50 (SNB-19) | GI50 (NCI-H23) | GI50 (RPMI-8226) | GI50 (SK-MEL-2) | GI50 (KM12) | GI50 (IGROV-1) | GI50 (NCI/ADR-RES) | GI50 (NCI-H226) | GI50 (ACHN) | GI50 (DU-145) | GI50 (MOLT-4) | GI50 (UACC-62) | GI50 (COLO 205) | GI50 (UACC-257)
Cc1ccc(C2(c3ccc(Cl)cc3)c3ccccc3C3=NCCN32)cc1 (stereo not given) | 6.79 µM (inactive) | 3.74 µM (inactive) | 3.37 µM (inactive) | 1.89 µM (inactive) | 21.5 µM (inactive) | 2.86 µM (inactive) | 13.7 µM (inactive) | 14.3 µM (inactive) | 7.16 µM (inactive) | 12.2 µM (inactive) | 10.7 µM (inactive) | 2.15 µM (inactive) | 10 µM (inactive) | 16.3 µM (inactive) | 6.93 µM (inactive) | 13.2 µM (inactive) | 3.66 µM (inactive) | 7.1 µM (inactive) | 4.6 µM (inactive) | 6.55 µM (inactive)
CCOc1ccc(NC(=O)/C=C/c2ccco2)cc1 | 11.9 µM (inactive) | 24.2 µM (inactive) | 12.3 µM (inactive) | 26.4 µM (inactive) | > 100 µM (inactive) | 5.98 µM (inactive) | > 100 µM (inactive) | > 100 µM (inactive) | 32.3 µM (inactive) | > 100 µM (inactive) | 30.5 µM (inactive) | > 100 µM (inactive) | 30.8 µM (inactive) | 86.9 µM (inactive) | > 100 µM (inactive) | 47 µM (inactive) | 40 µM (inactive) | > 100 µM (inactive) | 36.1 µM (inactive) | 72.9 µM (inactive)
COC(=O)[C@]1(c2cc3ccccc3[nH]2)CC2CN(CC(=O)N(C)OC)C1C1OC(C)(C)OC21 (stereo not given in full) | 27.2 µM (inactive) | 35.2 µM (inactive) | 49.5 µM (inactive) | 61.9 µM (inactive) | 54.2 µM (inactive) | 44.2 µM (inactive) | 92.9 µM (inactive) | 45.8 µM (inactive) | 23.2 µM (inactive) | 74.8 µM (inactive) | 29.6 µM (inactive) | 59.3 µM (inactive) | 41.6 µM (inactive) | 56 µM (inactive) | 42.7 µM (inactive) | > 100 µM (inactive) | 8.32 µM (inactive) | 61.7 µM (inactive) | 31.7 µM (inactive) | 32 µM (inactive)
CC(=O)NC1=CC(=O)C=C(Cl)C1=O | 20.9 µM (inactive) | 33.7 µM (inactive) | 16.8 µM (inactive) | > 100 µM (inactive) | > 100 µM (inactive) | 17.9 µM (inactive) | > 100 µM (inactive) | 43.9 µM (inactive) | 22.6 µM (inactive) | 59.8 µM (inactive) | > 100 µM (inactive) | > 100 µM (inactive) | > 100 µM (inactive) | > 100 µM (inactive) | > 100 µM (inactive) | > 100 µM (inactive) | 22.2 µM (inactive) | 37.5 µM (inactive) | 39.3 µM (inactive) | 54.1 µM (inactive)
COC(=O)[C@H](C)NC(=O)C1(CNC(=O)[C@H](C)NC(=O)OC(C)(C)C)Cc2ccccc2-c2ccccc2C1 | 19.5 µM (inactive) | 24.7 µM (inactive) | 26.1 µM (inactive) | 17.4 µM (inactive) | 12.2 µM (inactive) | 20 µM (inactive) | > 56.9 µM (inactive) | 18 µM (inactive) | 7.59 µM (inactive) | 40 µM (inactive) | 16.1 µM (inactive) | 16.3 µM (inactive) | 17.5 µM (inactive) | 24.5 µM (inactive) | 22.8 µM (inactive) | 14.9 µM (inactive) | 16.7 µM (inactive) | 16.7 µM (inactive) | 22.3 µM (inactive) | > 48.2 µM (inactive)
Nn1c(Sc2nc3ccccc3c(=O)n2N)nc2ccccc2c1=O | 2.51 µM (inactive) | 2.12 µM (inactive) | 4.04 µM (inactive) | 3.4 µM (inactive) | 6.37 µM (inactive) | 6.22 µM (inactive) | 6.92 µM (inactive) | 1.91 µM (inactive) | 3.5 µM (inactive) | 3.24 µM (inactive) | 11.7 µM (inactive) | 6.5 µM (inactive) | 7.76 µM (inactive) | 1.71 µM (inactive) | 8.95 µM (inactive) | 20.2 µM (inactive) | 1.63 µM (inactive) | 11.5 µM (inactive) | 13.8 µM (inactive) | 16.5 µM (inactive)
CS(=O)(=O)CCC(N)P(=O)(O)O (stereo not given) | > 100 µM (inactive) | > 100 µM (inactive) | > 100 µM (inactive) | > 100 µM (inactive) | > 100 µM (inactive) | > 100 µM (inactive) | > 100 µM (inactive) | > 100 µM (inactive) | > 100 µM (inactive) | > 100 µM (inactive) | > 100 µM (inactive) | > 100 µM (inactive) | > 100 µM (inactive) | > 100 µM (inactive) | > 100 µM (inactive) | > 100 µM (inactive) | > 100 µM (inactive) | > 100 µM (inactive) | > 100 µM (inactive) | > 100 µM (inactive)
O=C1ON=C2C3CC4CC12CC1(C3)C(=O)ON=C41 | > 100 µM (inactive) | > 100 µM (inactive) | > 100 µM (inactive) | > 100 µM (inactive) | > 100 µM (inactive) | > 100 µM (inactive) | > 100 µM (inactive) | > 100 µM (inactive) | > 100 µM (inactive) | > 100 µM (inactive) | > 100 µM (inactive) | > 100 µM (inactive) | > 100 µM (inactive) | > 100 µM (inactive) | > 100 µM (inactive) | > 100 µM (inactive) | > 100 µM (inactive) | > 100 µM (inactive) | > 100 µM (inactive) | > 100 µM (inactive)
Cc1cc(S(=O)(=O)Nc2nnc3c(Cl)cc(C(F)(F)F)cn23)c(S)cc1Cl | > 100 µM (inactive) | 66.2 µM (inactive) | 99.8 µM (inactive) | 37.2 µM (inactive) | > 89.3 µM (inactive) | 45.5 µM (inactive) | 25.1 µM (inactive) | 95.1 µM (inactive) | > 100 µM (inactive) | 48.4 µM (inactive) | 39.3 µM (inactive) | 50.5 µM (inactive) | > 80.4 µM (inactive) | 23.3 µM (inactive) | > 76.7 µM (inactive) | > 91.8 µM (inactive) | 75.9 µM (inactive) | 48.9 µM (inactive) | > 68.4 µM (inactive) | > 100 µM (inactive)
O=C1CCCCC(=O)Nc2ccccc2N1 | > 100 µM (inactive) | > 100 µM (inactive) | > 100 µM (inactive) | > 100 µM (inactive) | > 100 µM (inactive) | > 100 µM (inactive) | > 100 µM (inactive) | > 100 µM (inactive) | > 100 µM (inactive) | > 100 µM (inactive) | > 100 µM (inactive) | > 100 µM (inactive) | > 100 µM (inactive) | > 100 µM (inactive) | > 100 µM (inactive) | > 100 µM (inactive) | > 100 µM (inactive) | > 100 µM (inactive) | > 100 µM (inactive) | > 100 µM (inactive)
CCCCCCCC/C=C1\CCC(CN2CCOCC2)C1=O (stereo not given) | 3.11 µM (inactive) | 2.74 µM (inactive) | 9.55 µM (inactive) | 6.98 µM (inactive) | 8.87 µM (inactive) | 4.81 µM (inactive) | 11.2 µM (inactive) | 10.2 µM (inactive) | 0.551 µM (active) | 14.8 µM (inactive) | 3.41 µM (inactive) | 7.35 µM (inactive) | 3.79 µM (inactive) | 17.4 µM (inactive) | 16.4 µM (inactive) | 5.3 µM (inactive) | 2.13 µM (inactive) | 5.35 µM (inactive) | 5.77 µM (inactive) | 8.67 µM (inactive)
